In patent US20110166121A1 (LG LIFE SCIENCES LTD., priority 2008, published 2011):
pIC50, pKi: −log10 of the molar value.

Key:
[1] = system: Human platelet aggregation caused by ADP; test: Inhibition of ADP-induced platelet aggregation (Mimic-human PRP); assay type: cell-based; conditions: 20 μM ADP, human platelet concentrate diluted with PPP, absorption at 595 nm
Outline: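 Ki came from non-linear sigmoidal fits of inhibition, measured as the 3-min rise in absorbance at 595 nm after 20 μM ADP, relative to 0/20 μM ADP controls. Platelets (3–4×10^8/mL in PPP-diluted human PRP) were exposed to 0.01–30 μM compound for 20 min at room temperature beforehand.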

[2] = target: T1, Human P2Y12 receptor (Homo sapiens, UniProt Q9H244); test: Human P2Y12 receptor cell membrane binding assay with [3H] 2-Mes-ADP; conditions: 1 nM [3H] 2-Mes-ADP, membranes of HEK cells expressing P2Y12 receptor; read-out: Binding activity (IC50)
T1 construct: expressed in transfected cells; host or cells: HEK cells
T1 sequence (Q9H244 whole entry): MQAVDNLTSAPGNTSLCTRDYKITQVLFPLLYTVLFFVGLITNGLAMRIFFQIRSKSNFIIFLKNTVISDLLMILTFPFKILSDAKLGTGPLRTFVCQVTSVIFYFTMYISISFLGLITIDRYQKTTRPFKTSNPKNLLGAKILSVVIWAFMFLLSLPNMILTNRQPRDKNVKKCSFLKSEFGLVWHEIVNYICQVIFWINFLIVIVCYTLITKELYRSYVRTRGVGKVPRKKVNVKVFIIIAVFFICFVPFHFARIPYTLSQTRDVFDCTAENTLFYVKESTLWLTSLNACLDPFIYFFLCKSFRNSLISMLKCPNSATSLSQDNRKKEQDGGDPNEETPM
Outline: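 Competition binding used 1 nM [3H]2-MeS-ADP on P2Y12-expressing HEK cell membranes for 1 h at room temperature, followed by filtration and scintillation counting.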

SMILES | pKi [1] | pIC50 [2]
CCCc1cc2c(N3CCn4c(nnc4C(F)(F)F)C3)nc(N3CCCC(C(=O)OC(C)C)C3)nc2s1 (stereo not drawn) [Example 1-47, 1-[6-Propyl-4-(3-trifluoromethyl-5,6-dihydro-8H-[1,2,4]triazolo[4,3-a]pyrazin-7-yl)-thieno[2,3-d]pyrimidin-2-yl]-piperidine-3-carboxylic acid isopropyl ester] | 5.72 | 6.55
CCCc1cc2c(N3CCn4c(nnc4C(F)(F)F)C3)nc(N3CCCC(C(=O)OCOC(=O)C(C)(C)C)C3)nc2s1 (stereo not drawn) [Example 1-48, 1-[6-Propyl-4-(3-trifluoromethyl-5,6-dihydro-8H-[1,2,4]triazolo[4,3-a]pyrazin-7-yl)-thieno[2,3-d]pyrimidin-2-yl]-piperidine-3-carboxylic acid 2,2-dimethyl-propionyloxymethyl ester] | 5.89 | 6.40
CCCc1cc2c(N3CCn4c(nnc4C(F)(F)F)C3)nc(N3CCC[C@H]3C(=O)OC)nc2s1 [Example 1-49, (S)-1-[6-Propyl-4-(3-trifluoromethyl-5,6-dihydro-8H-[1,2,4]triazolo[4,3-a]pyrazin-7-yl)-thieno[2,3-d]pyrimidin-2-yl]-pyrrolidine-2-carboxylic acid methyl ester] | 6.64 | 7.01
CCCc1cc2c(N3CCn4c(nnc4C(F)(F)F)C3)nc(N3CCC[C@H]3C(=O)O)nc2s1 [Example 1-50, (S)-1-[6-Propyl-4-(3-trifluoromethyl-5,6-dihydro-8H-[1,2,4]triazolo[4,3-a]pyrazin-7-yl)-thieno[2,3-d]pyrimidin-2-yl]-pyrrolidine-2-carboxylic acid] | 7.40 | 6.96
CCCc1cc2c(N3CCn4c(nnc4C(F)(F)F)C3)nc(N3CCC[C@H]3C(=O)OC(C)C)nc2s1 [Example 1-51, (S)-1-[6-Propyl-4-(3-trifluoromethyl-5,6-dihydro-8H-[1,2,4]triazolo[4,3-a]pyrazin-7-yl)-thieno[2,3-d]pyrimidin-2-yl]-pyrrolidine-2-carboxylic acid isopropyl ester] | 6.10 | 6.66
CCCc1cc2c(N3CCn4c(nnc4C(F)(F)F)C3)nc(N3CCC[C@H]3C(=O)OCOC(=O)C(C)(C)C)nc2s1 [Example 1-52, (S)-1-[6-Propyl-4-(3-trifluoromethyl-5,6-dihydro-8H-[1,2,4]triazolo[4,3-a]pyrazin-7-yl)-thieno[2,3-d]pyrimidin-2-yl]-pyrrolidine-2-carboxylic acid 2,2-dimethyl-propionyloxymethyl ester] | < 5.40 | 5.99
CCCc1cc2c(N3CCn4c(nnc4C(F)(F)F)C3)nc(N3CCC[C@@H]3C(=O)O)nc2s1 [Example 1-54, (R)-1-[6-Propyl-4-(3-trifluoromethyl-5,6-dihydro-8H-[1,2,4]triazolo[4,3-a]pyrazin-7-yl)-thieno[2,3-d]pyrimidin-2-yl]-pyrrolidine-2-carboxylic acid] | 6.89 | 6.84
CCCc1cc2c(N3CCn4c(nnc4C(F)(F)F)C3)nc(N3CCC(C#N)C3)nc2s1 (stereo not drawn) [Example 1-55, 1-[6-Propyl-4-(3-trifluoromethyl-5,6-dihydro-8H-[1,2,4]triazolo[4,3-a]pyrazin-7-yl)-thieno[2,3-d]pyrimidin-2-yl]-pyrrolidine-3-carbonitrile] | 7.57 | 7.22
CCCc1cc2c(N3CCn4c(nnc4C(F)(F)F)C3)nc(N3CC[C@H](C(=O)O)C3)nc2s1 [Example 1-57, (S)-1-[6-Propyl-4-(3-trifluoromethyl-5,6-dihydro-8H-[1,2,4]triazolo[4,3-a]pyrazin-7-yl)-thieno[2,3-d]pyrimidin-2-yl]-pyrrolidine-3-carboxylic acid] | 7.27 | 7.82
CCCc1cc2c(N3CCn4c(nnc4C(F)(F)F)C3)nc(N3CC[C@H](C(=O)OC(C)C)C3)nc2s1 [Example 1-58, (S)-1-[6-Propyl-4-(3-trifluoromethyl-5,6-dihydro-8H-[1,2,4]triazolo[4,3-a]pyrazin-7-yl)-thieno[2,3-d]pyrimidin-2-yl]-pyrrolidine-3-carboxylic acid isopropyl ester] | 6.15 | 6.72
CCCc1cc2c(N3CCn4c(nnc4C(F)(F)F)C3)nc(N3CC[C@H](C(=O)OCOC(=O)C(C)(C)C)C3)nc2s1 [Example 1-59, (S)-1-[6-Propyl-4-(3-trifluoromethyl-5,6-dihydro-8H-[1,2,4]triazolo[4,3-a]pyrazin-7-yl)-thieno[2,3-d]pyrimidin-2-yl]-pyrrolidine-3-carboxylic acid 2,2-dimethyl-propionyloxymethyl ester] | 5.84 | 6.36
CCCc1cc2c(N3CCn4c(nnc4C(F)(F)F)C3)nc(N3CC[C@@H](C(=O)O)C3)nc2s1 [Example 1-61, (R)-1-[6-Propyl-4-(3-trifluoromethyl-5,6-dihydro-8H-[1,2,4]triazolo[4,3-a]pyrazin-7-yl)-thieno[2,3-d]pyrimidin-2-yl]-pyrrolidine-3-carboxylic acid] | 5.14 | 7.96
CCCc1cc2c(N3CCn4c(nnc4C(F)(F)F)C3)nc(N3CC[C@@H](C(=O)OC(C)C)C3)nc2s1 [Example 1-62, (R)-1-[6-Propyl-4-(3-trifluoromethyl-5,6-dihydro-8H-[1,2,4]triazolo[4,3-a]pyrazin-7-yl)-thieno[2,3-d]pyrimidin-2-yl]-pyrrolidine-3-carboxylic acid isopropyl ester] | 6.70 | 6.49
CCCc1cc2c(N3CCn4c(nnc4C(F)(F)F)C3)nc(N3CC[C@@H](C(=O)OCOC(=O)C(C)(C)C)C3)nc2s1 [Example 1-63, (R)-1-[6-Propyl-4-(3-trifluoromethyl-5,6-dihydro-8H-[1,2,4]triazolo[4,3-a]pyrazin-7-yl)-thieno[2,3-d]pyrimidin-2-yl]-pyrrolidine-3-carboxylic acid 2,2-dimethyl-propionyloxymethyl ester] | 6.00 | 6.28
CCCc1cc2c(N3CCn4c(nnc4C(F)(F)F)C3)nc(N(C)C)nc2s1 [Example 1-64, Dimethyl-[6-propyl-4-(3-trifluoromethyl-5,6-dihydro-8H-[1,2,4]triazolo[4,3-a]pyrazin-7-yl)-thieno[2,3-d]pyrimidin-2-yl]-amine] | < 5.40 | 6.77
CCCc1cc2c(N3CCn4c(nnc4C(F)(F)F)C3)nc(N3CCc4ccccc4C3)nc2s1 [Example 1-65, 2-[6-Propyl-4-(3-trifluoromethyl-5,6-dihydro-8H-[1,2,4]triazolo[4,3-a]pyrazin-7-yl)-thieno[2,3-d]pyrimidin-2-yl]-1,2,3,4-tetrahydro-isoquinoline] | 6.59 | 6.59
CCCc1cc2c(N3CCn4c(nnc4C(F)(F)F)C3)nc(N3CCc4cc(OC)c(OC)cc4C3)nc2s1 [Example 1-66, 6,7-Dimethoxy-2-[6-propyl-4-(3-trifluoromethyl-5,6-dihydro-8H-[1,2,4]triazolo[4,3-a]pyrazin-7-yl)-thieno[2,3-d]pyrimidin-2-yl]-1,2,3,4-tetrahydro-isoquinoline] | 5.85 | 6.70
CCCc1cc2c(N3CCn4c(nnc4C(F)(F)F)C3)nc(N3CCc4cc(OC)c(OC)cc4C3CC)nc2s1 (stereo not drawn) [Example 1-67, 1-Ethyl-6,7-dimethoxy-2-[6-propyl-4-(3-trifluoromethyl-5,6-dihydro-8H-[1,2,4]triazolo[4,3-a]pyrazin-7-yl)-thieno[2,3-d]pyrimidin-2-yl]-1,2,3,4-tetrahydro-isoquinoline] | < 5.40 | 6.19
